Consider two compounds from publication PMC5787466, “Accelerated bottom-up drug design platform enables the discovery of novel stearoyl-CoA desaturase 1 inhibitors for cancer therapy” (Oncotarget, 2017).

The term IC50 denotes the concentration that gives 50% inhibition.

For one experiment, the system named is A498. The experiment is described as follows: Proliferation dose-response IC50, A498. The format is cell-based. To be noted: Homo sapiens, proliferative IC50, linear regression modeling of dose-response. The procedure: (§1) Error bars indicate standard deviation for n=2 replicates. […] To evaluate inhibition of SCD1 by these molecules, we used LC/MS to quantify changes in SCD1-catalyzed conversion of stearoyl-CoA to oleoyl-CoA in response to drug treatments in vitro using SCD1 protein extracted from murine liver (Figure 3c, Supplementary Figure 2g). […] Synthesis routes and spectral data including NMR and MS are also provided (Supplementary Figures 3-6).
(§2) Cells were seeded at 5,000 cells/well in clear-bottom 96-well plates in triplicate. Drug treatment was applied at 1:1000 in reduced serum conditions (3%). […] Alternatively, cells were plated 2x10^5/well in 12-well plates (Genesee Scientific) in triplicate prior to drug treatment. After 120-hour treatment, cell number was established using a Coulter Particle Counter (Beckman). Oleic acid-albumin (Sigma Aldrich) was added to media at 5µM, and was applied adjuvant to drug treatment. Drug stocks were prepared in DMSO (Sigma) at 1000x. IC50 dosing per cell line was calculated using CalcuSyn analytical software.

The test system of a further experiment is ACHN. Nature of the experiment: Proliferation dose-response IC50, ACHN. The format is cell-based. To be noted: Homo sapiens, proliferative IC50, linear regression modeling of dose-response. The procedure:
as §1, §2

Another experiment deals with Caki1. The experiment is described as follows: Proliferation dose-response IC50, Caki1. To be noted: Homo sapiens, CAKI-1; proliferative IC50, linear regression modeling of dose-response. The format is cell-based. How it is done:
as §1, §2

For a further experiment, the system named is Caki2. The experiment is described as follows: Proliferation dose-response IC50, Caki2. The format is cell-based. To be noted: Homo sapiens, CAKI-2; proliferative IC50, linear regression modeling of dose-response. The procedure:
as §1, §2

The next experiment concerns RCC cell lines. Nature of the experiment: Proliferation assay with exogenous oleic acid (OA) rescue. To be noted: cells treated with proliferative IC50 dose, 72 hour, OA 5µg/mL. The format is cell-based, Human. The source says:
Induction of the unfolded protein response (UPR) is a known biological response to SCD1 inhibition in tumor cells. […] The addition of exogenous OA was sufficient to reverse the activation of ATF6 (Figure 4b). Moreover, exogenous OA inhibited SSI-(1-4) mediated upregulation of the UPR markers BiP (heat shock 70 kDa protein) and CHOP (damage inducible transcript 3) protein levels in both A498 and ACHN cells (Figure 4c). Collectively these findings confirm that SSI-(1-4) reliably recapitulates the biological responses observed in tumor cells treated with known SCD1 inhibitors. […] Thus, SSI-4 is not predicted to have any major off-target effects through kinase inhibition (Supplementary Figures 7 and 8).
Results are presented as relative bioluminescence (BLI). […] Beta-actin is used as a loading control. (d) Proliferative response in patient-derived normal cells, and established tumor cell lines to treatment with MF-438 or SSI-(1-4).
Cells were seeded at 5,000 cells/well in clear-bottom 96-well plates in triplicate. Drug treatment was applied at 1:1000 in reduced serum conditions (3%). After 72 hours, cells were washed with PBS, and stored at -80 °C prior to analysis using CyQuant® Proliferation Analysis Kit (Invitrogen) er manufacturers’ protocol for relative fluorescence units. […] IC50 dosing per cell line was calculated using CalcuSyn analytical software.

In another experiment the test system is SCD1. To be noted: known inhibitor, no reference given; cited from earlier work.
Experiment [1] deals with T1, SCD1 protein extracted from murine liver (Mus musculus, UniProt P13516).
T1 construct: Microsomes were isolated from murine liver using Microsome Isolation Kit (BioVision); from tissue; host or cells: murine liver microsomes
T1 sequence (P13516 1-355): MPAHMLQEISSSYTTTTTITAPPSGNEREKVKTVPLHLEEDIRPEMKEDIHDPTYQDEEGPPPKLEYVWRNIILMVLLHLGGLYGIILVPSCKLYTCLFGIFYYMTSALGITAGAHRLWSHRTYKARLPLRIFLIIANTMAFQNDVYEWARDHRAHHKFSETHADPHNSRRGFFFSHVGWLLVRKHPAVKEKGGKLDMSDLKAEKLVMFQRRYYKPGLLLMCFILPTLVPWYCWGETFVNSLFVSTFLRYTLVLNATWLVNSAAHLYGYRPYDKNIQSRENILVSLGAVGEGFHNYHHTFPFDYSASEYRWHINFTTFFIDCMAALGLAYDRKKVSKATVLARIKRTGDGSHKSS
The experiment is described as follows: In vitro SCD1 enzymatic inhibition by LC/MS (stearoyl-CoA to oleoyl-CoA, liver microsomes). The format is biochemical. To be noted: n=2. The source says:
After synthesis feasibility and cost analysis, we synthesized 38 of the selected compounds. […] To evaluate inhibition of SCD1 by these molecules, we used LC/MS to quantify changes in SCD1-catalyzed conversion of stearoyl-CoA to oleoyl-CoA in response to drug treatments in vitro using SCD1 protein extracted from murine liver (Figure 3c, Supplementary Figure 2g). […] Synthesis routes and spectral data including NMR and MS are also provided (Supplementary Figures 3-6).
Microsomes were isolated from murine liver using Microsome Isolation Kit (BioVision) per the manufacturer protocol. […] To quantify biotransformation of ^13C18-stearoyl CoA to ^13C18-oleoyl CoA for drug treatments relative to vehicle controls, supernatants were evaluated using the LC/MS^2 acyl CoA quantitation method of Magnes et al. and adapting selected reaction monitoring (SRM) for isotope-labeled acyl CoAs. […] SRM signal areas for isotope-labeled acyl CoAs were measured relative to the heptadecanoyl CoA I.S. using XCalibur software (Thermo), and percent enzyme inhibition determined by comparing ^13C18-oleoyl CoA quantities between treatment and DMSO control assays. […]
Background: Liver microsomes are a subcellular fraction often used to study metabolism.

As for `CNC(=O)COc1cncc(C(=O)N2CC[C@H](Oc3ccccc3Cl)C2)c1` [ChemBL375265, reference compound], the 50% inhibitory concentration (IC50) in the experiment with A498 is 5 µM; in the experiment with ACHN, 0.08 µM; with Caki1, 1 µM; with Caki2, 0.5 µM; in the experiment on SCD1, 400 nM. Further, the “rescue of proliferation by exogenous oleic acid (OA)” value in the experiment with RCC cell lines is reported as “fully restored proliferation”.
As to `Cc1nnc(-c2ccc(N3CCC(Oc4ccccc4C(F)(F)F)CC3)nn2)s1` [MF-438, 2-methyl-5-(6-(4-(2-(trifluoromethyl)phenoxy)piperidin-1-yl)pyridazin-3-yl)-1,3,4-thiadiazole, reference compound], the concentration for half-maximal inhibition (IC50) in the experiment on A498 was found to be 0.008 µM; with ACHN, 0.006 µM; in the experiment with Caki1, 0.007 µM; with Caki2 it was 0.012 µM; in experiment [1], 1.1 nM. Besides, the “rescue of proliferation by exogenous oleic acid (OA)” value with RCC cell lines is given as “fully restored proliferation”.
